Entries after “also recorded” stand apart in the source; their conditions may differ.

In data set [1] the test system is 3T3 mouse fibroblast cells. Kind of data set: Pulse-chase staining of lysosomal compartments in cultured mammalian cells (Example 10). Type of data set: cell-based. The protocol: 3T3 mouse fibroblast cells are grown on coverslips in calf serum-supplemented DMEM medium. The coverslips of cells are washed using the HBSS+, then hexidium solutions are prepared to final concentrations of 2 μM and 0.2 μM in HBSS+. The cells are incubated in the dye-containing medium for 2 min at room temperature then they are washed in HBSS +and viewed by epifluorescence microscopy using a long-pass fluorescein or a rhodamine filter set.

For the next data set, the system named is gram-positive bacteria. As to conditions: mild conditions; application Ser. No. 08/047,683; cited from earlier work.
The next data set relates to sea urchin sperm. Kind of data set: Staining of sea urchin sperm (Example 8). Type of data set: cell-based. As to conditions: 2 μM dye, 5 min, room temperature. The procedure: Sperm cells are released from sea urchins by injection of KCl and the cells are concentrated by low speed centrifugation and suspended in 1 mL artificial seawater (ASW) at room temperature. Sufficient 10 mM dye stock solution is added to the sperm suspension to obtain a final dye concentration of 2 μM. The sperm are labeled by incubation in the dye solution for 5 min at room temperature. The sperm are washed by centrifugation at 2000 rpm for 1 min and then resuspended in 1 mL ASW before mounting and observation.

Data set [2] deals with 3T3 mouse fibroblast cells. Kind of data set: Staining of nuclei in adherent cultured mammalian cells (Example 9). As to conditions: 2 μM dye. The data set is classed as cell-based. The procedure:
3T3 mouse fibroblast cells are grown on coverslips in calf serum-supplemented DMEM medium. The coverslips of cells are washed in HBSS+. 5-DAPP/LIVE dye solutions are prepared to a final concentration of 2 μM in DMEM without serum. One group of 3T3 cells is treated with 300 μM chloroquine (group 1). These cells and control cells (group 2) not treated with chloroquine are incubated at 37° C. for 30 min. The two groups of cells are transferred to DMEM plus 5-DAPP/LIVE. The cells are incubated in the dye-containing medium for 30 min at room temperature and are subsequently washed in HBSS+and viewed by epifluorescence microscopy using a long-pass fluorescein or a rhodamine filter set.

Turning to `CCCCCC[n+]1c(-c2ccccc2)c2cc(N)ccc2c2ccc(N)cc21` [hexidium], the “labeling after brief pulse-chase loading” value in data set [1] (0.2 μM, 2 min, room temperature) is listed as “labeling of punctate structures in the cell cytoplasm; also recorded: green”. The “labeling after brief loading” value in data set [1] (2 μM, 2 min, room temperature) is recorded as “additional organellar staining, which is apparently mitochondrial”. Besides, in data set [1] (300 μM chloroquine), the “effect of chloroquine preincubation on staining” value is given as “reduces the amount of cytoplasmic staining”. For the same molecule, in data set [1] (under both conditions (0.2 and 2 μM)), the staining of nuclei entry is “stained slightly, but only in the nucleolar regions”. The “staining of live gram-positive bacteria” value in the data set with gram-positive bacteria was “significantly greater”. Moreover, in the data set with sea urchin sperm, the “effect on motility of the sperm or ability to fertilize a sea urchin egg” value is “no apparent effect” and the “staining of sperm nuclei” value was “sperm nuclei stain brightly”. In addition, the “staining distribution, chloroquine-treated cells” value in data set [2] (group 1, 300 μM chloroquine) was “stained throughout, but with a greater relative intensity of staining in the nucleus”. For the same molecule, the “staining distribution, control cells” value in data set [2] (group 2, no chloroquine) is “relatively equal staining in the nucleus and cytoplasm”. Moreover, the “color of nucleus and cytoplasm” value in data set [2] (one half hour, long-pass fluorescein filter (red with rhodamine excitation)) is reported as “orange”.

(Values after patent US5437980A, “Phenanthridium dye staining of nucleic acids in living cells” (Molecular Probes, Inc., priority 1993, dated 1995).)
